Several values for one entry are separate records, joined by “and”; a condition that tells them apart may be missing. Equal entries are not always repeated. Where two headings read alike, the source gives them in different places.
Experiments:
ID8 cells [1] = test: Soft-agar colony formation, ID8; format: cell-based, murine
Description: (§1) ID8 and TOV Colony Formation in The Presence of Small Molecules and/or Chemotherapy: Bottom Layer Hard Agar: 2×DMEM and 0.8% agar stock was prepared and adjusted to 42° C. in a water bath for 30 min. The agar and 2×DMEM were mixed (1:2). 500 μL of the mixture was then added to each well of a 24 well plate, and the plate was rocked to distribute evenly and allowed to solidify at room temperature in a tissue culture hood. Upper Layer Soft Agar: 0.6% agar stock was prepared adjusted to 42° C. in a water bath for 30 min. During this time, ID8 cells were trypsinized, and 40,000 cells per mL suspension in 1×DMEM was made. Cell suspensions were then mixed with soft agar stock (1:2) and 500 μL of the mixture was then added to each well. Each condition was in triplicate.
(§2) Drug-DMEM stocks were made to achieve the proper concentrations in 1.1 mL, the total volume of each well: AMD3100 (10 μM and 1 μM for ID8 cells, 5 μM and 2.5 μM for TOV cells) and TAXOL (0.015 μM and 0.005 μM). 100 μL of each drug was added to the relative wells in triplicate. Plates were then incubated in a humidified incubator with […] for 20-30 days. At the end of the experiment, each well was stained with 0.005% crystal violet in 15% ethanol (140 μL per well) and plates were incubated again for several hours then photos were taken using a microscope. ID8 Colonies equal or bigger […] and TOV colonies equal or bigger than […] were counted using Image J software.

TOV-112D cells [2] = test: Soft-agar colony formation, TOV-112D; format: cell-based, human
Description: as §1
as §2, with “Drug-DMEM stocks were made to achieve the proper concentrations in 1.1 mL, the total volume of each well: AMD3100 (10 μM and 1 μM for ID8 cells, 5 μM and 2.5 μM for TOV cells) and TAXOL (0.015 μM and 0.005 μM).” left out

human ovarian cancer = details: reported; read-out: IC50 of paclitaxel in human ovarian cancer; cited from earlier work
[3] = system: ID8 murine ovarian cancer cells; test: cells
Description: (§3) Drug Titrations: TAXOL was titered to determine the concentrations used in combination with AMD3100. Cells were cultured in 96-well black assay plates with optically clear bottoms (500 and 2500 cells per well were tested), including a standard curve plate. ID8 cells were then exposed to increasing concentrations of paclitaxel (1, 0.5, 0.15, 0.05, 0.015, and 0.005 μM), and TOV cells were exposed to 15, 5, and 1 nM Taxol for 48 or 96 hr. Proliferation was measured by measuring the amount of dsDNA using CyQuant reagent and read on a Perkin Elmer Envision 2103. AMD3100 (50, 25, 10, 5, 2.5, and 1 μM) was titered in the same manner. Each condition was done in triplicate. Drugs were not replenished during any of the experiments. Data was analyzed in Prism 7.
(§4) Simultaneous Delivery of Small Molecules and Chemotherapy: To determine the effect of AMD3100 alone or in combination with TAXOL, cell proliferation was measured by seeding 2500 TOV cells and 500 ID8 cell per well in a clear bottom 96-well black assay plates. AMD3100 (final concentrations: 10 μM for ID8 and 2.5 μM for TOV) and Paclitaxel (final concentrations: 15 and 5 nM for ID8 cells and 5 and 1 nM for TOV cells) were mixed with DMEM. 100 μL of the mixture was added to the cells. Each condition was done in triplicate. Plates were incubated at 37° C. with 5% CO2 for 72 hr (ID8) and 96 hr (TOV-112D). Standard curve plates were washed the same day the experiment was done. Plates were stored at −80° C. after washing and proliferation rate was measured then by CyQuant assay.

ID8 cells [4] = system: ID8 cells
Description: (§5) Sequential Delivery of Small Molecules and Chemotherapy: ID8 cells were exposed to AMD3100 in a 6 well plate (2.5×10^5 cells/well) for 72 hr. Cells were then washed and counted. Cell viability was checked by propidium iodide. For each condition, 500 cells per well of viable ID8 cells were then seeded into a 96 well black assay plate. ID8 cells were then incubated in DMEM containing a carrier, AMD3100 10 μM, TAXOL 0.005 μM, or both for another 72 hr. For TOV-112D cells, initial 72 hr incubation was with AMD3100 5 μM, followed by 96 hr incubation in media containing AMD3100 5 μM, TAXOL 1 nM, or both. At the conclusion of the experiment, plates were washed and dsDNA was measured via CyQuant assay.

TOV-112D cells [5] = system: TOV-112D cells
Description: as §5

[6] = system: TOV-112D human ovarian cancer cells; test: cells
Description: as §3
as §4, with “Plates were incubated at 37° C. with 5% CO2 for 72 hr (ID8) and 96 hr (TOV-112D).” left out

AE17 = test: Survival in intraperitoneal malignant mesothelioma model, AE17; format: in vivo; details: C57BL/6 mice, IP once a week for four weeks, AMD3100 1 mg/kg, VIC-008 20 μg per mouse
Description: (§6) Intraperitoneal malignant mesothelioma (MM) models were established in immunocompetent C57BL/6 mice using syngeneic 40L and AE17 cell lines. Here, we tested the effect of AMD3100 and VIC-008, alone or in combination, on mouse survival in the mesothelioma-bearing mice. […], alone, was administered at 20 μg per mouse intraperitoneally (IP) once a week for four successive weeks. AMD3100 was administered at 1 mg/kg of mouse body weight via IP injection once a week for four successive weeks.

CXCR4 [7] = biological target: CXCR4 (Mus musculus, UniProt P70658); details: ID8 cells; for expression of CXCR4 reduced by: AMD3100 10 μM, normalized, negative control 0, untreated 100
Chain of CXCR4 (Mus musculus, UniProt P70658) (P70658 whole entry): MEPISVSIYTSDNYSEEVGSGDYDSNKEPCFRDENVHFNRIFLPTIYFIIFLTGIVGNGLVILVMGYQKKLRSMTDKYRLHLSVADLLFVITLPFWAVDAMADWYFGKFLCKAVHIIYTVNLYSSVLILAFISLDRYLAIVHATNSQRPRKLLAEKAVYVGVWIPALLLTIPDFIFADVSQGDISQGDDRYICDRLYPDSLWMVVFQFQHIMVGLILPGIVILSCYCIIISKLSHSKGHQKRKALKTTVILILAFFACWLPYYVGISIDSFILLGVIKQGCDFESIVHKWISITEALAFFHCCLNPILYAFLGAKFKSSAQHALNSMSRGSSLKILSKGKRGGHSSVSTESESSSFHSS

40L = test: Survival in intraperitoneal malignant mesothelioma model, 40L; format: in vivo; details: 40L model, C57BL/6 mice; IP once a week for four weeks; AMD3100 1 mg/kg, VIC-008 20 μg per mouse
Description: as §6

ID8-Luc cells = details: C57/B6 mice, 1 mg/kg IP every 72 hours (subtherapeutic)
Description: Six- to eight-week old C57/B6 mice were injected with 5e6 ID8-Luc cells. The presence of the tumor was confirmed by luciferase imaging. The tumor bearing mice were treated with 1 mg/kg AMD-3100 by intraperitoneal (IP) injection every 72 hours or with TAXOL® (10 mg/ml).
Six- to eight-week old C57/B16 mice were injected with 5e6 ID8-Luc cells. The presence of the tumor was confirmed by luciferase imaging. The tumor bearing mice were treated with 1 mg/kg AMD-3100 by IP injection every 72 hours. In the combination treatment, the AMD3100 (1 mg/kg) and ruxolitinib (30 mg/kg) were administered concurrently but not simultaneously (i.e., administration was staggered).

CXCR4 [8] = biological target: CXCR4 (Homo sapiens, UniProt P61073); details: TOV-112D cells; for CXCR4 reduced by: AMD3100 5 μM, normalized
Chain of CXCR4 (Homo sapiens, UniProt P61073) (P61073 whole entry): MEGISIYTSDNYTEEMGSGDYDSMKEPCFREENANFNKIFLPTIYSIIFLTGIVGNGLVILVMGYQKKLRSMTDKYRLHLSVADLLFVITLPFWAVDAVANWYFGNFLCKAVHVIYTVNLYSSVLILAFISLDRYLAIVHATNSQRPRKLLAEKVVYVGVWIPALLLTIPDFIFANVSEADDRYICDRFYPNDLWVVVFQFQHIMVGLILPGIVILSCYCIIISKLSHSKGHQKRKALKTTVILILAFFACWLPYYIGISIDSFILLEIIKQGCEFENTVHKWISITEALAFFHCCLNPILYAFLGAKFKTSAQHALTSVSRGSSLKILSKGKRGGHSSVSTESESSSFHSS
Description: (§7) CXCR4, CXCR7, and CXCL12 expression in ovarian cancer cells: ID8 or TOV-112D cells were plated at 750,000 cells/well in 6-well plates. Conditions were WT, WT+AMD3100 (10 μM for ID8/5 μM for TOV-112D, MedChemExpress HY-50912 and AbCam ab1207180) 16 hrs, and WT+AMD3100 4 hrs. 2× drug stocks were made in complete DMEM, final volume per well was 2 mL. GolgiPlug (BD Pharmingen) was added to all wells 3 hrs prior to harvesting according to manufacturer's protocol. CXCL12, CXCR4, and CXCR7 expression was measured by Flow Cytometry. Antibodies: anti-h/mCXCL12/SDF-1 APC (IC350A, RandD Systems), anti-mCXCR4/CD184 PE (551966, BD Bioscience), anti-hCXCR4/CD184 PE (306506, BioLegend), anti-h/mCXCR7 PE-Cy7 (331115, BioLegend).
(§8) Flow Cytometry: Cells were harvested using enzyme free dissociation buffer (Thermo Fisher Scientific 13151014) and counted using Trypan Blue viability dye (Corning). Equal numbers of cells were labeled with antibody for surface markers. Thereafter cells were stained for viability and where needed with secondary antibody. […] All incubation steps were performed at 4° C. on a rocker in the dark. Cells were washed 2× before analysis in cell staining buffer consisting of PBS containing 0.5% BSA, 0.02% Sodium Azide, and 2 mM EDTA. Analysis of samples in duplicate was done with a BD Fortessa collecting a minimum of 10,000 events per sample and using FlowJo software.

CXCR7 [9] = biological target: CXCR7 (Mus musculus, UniProt P56485); details: ID8 cells
Chain of CXCR7 (Mus musculus, UniProt P56485) (P56485 whole entry): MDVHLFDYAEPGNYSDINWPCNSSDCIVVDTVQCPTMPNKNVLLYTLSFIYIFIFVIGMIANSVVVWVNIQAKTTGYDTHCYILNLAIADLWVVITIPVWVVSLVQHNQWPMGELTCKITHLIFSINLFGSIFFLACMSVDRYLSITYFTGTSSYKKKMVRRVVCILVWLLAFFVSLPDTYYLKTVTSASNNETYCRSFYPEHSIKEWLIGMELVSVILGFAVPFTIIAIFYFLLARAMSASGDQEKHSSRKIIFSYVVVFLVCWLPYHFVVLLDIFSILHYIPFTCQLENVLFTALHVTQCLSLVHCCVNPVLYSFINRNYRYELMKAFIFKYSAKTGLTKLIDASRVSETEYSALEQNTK
Description: as §7, §8

CXCR7 [10] = biological target: CXCR7 (Homo sapiens, UniProt P25106); details: TOV-112D cells
Chain of CXCR7 (Homo sapiens, UniProt P25106) (P25106 whole entry): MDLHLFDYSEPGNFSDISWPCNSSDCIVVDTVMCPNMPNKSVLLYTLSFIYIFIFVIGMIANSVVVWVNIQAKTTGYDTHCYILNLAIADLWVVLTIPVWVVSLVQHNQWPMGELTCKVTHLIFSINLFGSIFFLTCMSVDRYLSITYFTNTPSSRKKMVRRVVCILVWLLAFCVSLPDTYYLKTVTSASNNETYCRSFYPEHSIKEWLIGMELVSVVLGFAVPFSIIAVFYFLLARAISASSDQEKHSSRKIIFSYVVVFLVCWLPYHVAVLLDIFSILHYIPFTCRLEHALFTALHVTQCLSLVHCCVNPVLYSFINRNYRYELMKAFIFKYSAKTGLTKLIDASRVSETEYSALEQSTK
Description: as §7, §8

CXCL12 = details: for CXCL12 expression reduced by: 4 or 18 hours, normalized; for overall expression of CXCL12, significance of change: AMD3100 for either 4 or 18 hours
Description: as §7, §8

[11] = AMD3100 for either 4 or 18 hours

CC(=O)O[C@H]1C(=O)[C@@]2(C)[C@H]([C@H](OC(=O)c3ccccc3)[C@]3(O)C[C@H](OC(=O)[C@H](O)[C@@H](NC(=O)c4ccccc4)c4ccccc4)C(C)=C1C3(C)C)[C@]1(OC(C)=O)CO[C@@H]1C[C@@H]2O [TAXOL, Paclitaxel]
reduced ID8 colony formation by (ID8 cells [1]; TAXOL 5 nM): 56% and 57%
reduced ID8 colony formation by (ID8 cells [1]; TAXOL 15 nM): 94%
TOV-112D colony formation (TOV-112D cells [2]; TAXOL 5 nM): completely preventing
reduced colony formation by (TOV-112D cells [2]; TOV-112D, TAXOL 1 nM alone, non-significant): 20%
IC50 (human ovarian cancer): ≤ 3000 nM
IC50 ([3]; Mus musculus, ID8, 72 h, read-out: IC50, ID8 cell proliferation): 5 nM
inhibition at 0.005 µM ([3]; Mus musculus, ID8, read-out: proliferation inhibition): 50%
IC50 ([3]; Mus musculus, read-out: IC50, ID8 murine ovarian cancer cells): 5 nM
cell proliferation reduced by (ID8 cells [4]; ID8, no AMD3100 pre-treatment, re-plated in TAXOL 0.005 μM 72 hr): 50%
proliferation reduced by (TOV-112D cells [5]; control media, then TAXOL 1 nM 96 hr): 24%
IC50 ([6]; Homo sapiens, TOV112D, read-out: IC50, human ovarian cancer cells (TOV)): 2.5 nM
inhibition at 0.005 µM ([6]; Homo sapiens, TOV112D, read-out: proliferation inhibition): 89%
TOV-112D cell proliferation inhibition ([6]; TAXOL 1 nM, after 72 hours): did not significantly inhibit

Plerixafor octahydrochioride [AMD3100]
animal survival compared to saline control (AE17): modest benefit to survival
expression of CXCR4 reduced by (CXCR4 [7]; 4 hours): 24.5%
expression of CXCR4 reduced by (CXCR4 [7]; 18 hours): 23.5%
surface expression of CXCR4, significance of change (CXCR4 [7]; [11]): did not significantly alter
animal survival compared to saline control (40L): modest benefit to survival
decreased colony formation by (ID8 cells [1]; ID8, AMD3100 1 M (so in the source)): 16%
decreased colony formation by (ID8 cells [1]; ID8, AMD3100 10 M (so in the source)): 44%
survival of the tumor bearing mice (ID8-Luc cells): extends the survival
colony formation (TOV-112D cells [2]; TOV-112D, AMD3100 2.5 μM): did not reduce colony formation
ID8 cell growth inhibition ([3]; AMD3100 10 μM alone, 72 hours): did not significantly inhibit
proliferated more than untreated cells (ID8 cells [4]; ID8, no pre-treatment, re-plated in AMD3100 10 μM media 72 hr, not significant): 22%
proliferation reduced by, vs untreated control cells (ID8 cells [4]; ID8, pre-treated with AMD3100 72 hr, reseeded in AMD3100 10 μM 72 hr): 48%
increased growth (ID8 cells [4]; ID8, treated with AMD3100 and then incubated without drug): 22%
sensitization of cells to subsequent TAXOL by AMD3100 pre-treatment (ID8 cells [4]; ID8, vs untreated control cells then incubated with TAXOL): did not significantly sensitize
sensitization of cells by AMD3100 pre-treatment (TOV-112D cells [5]): did not significantly sensitize
proliferation reduced by (TOV-112D cells [5]; AMD3100 5 μM 72 hr, then re-plated in AMD3100 96 hrs): 79.5%
proliferation reduced by (TOV-112D cells [5]; AMD3100 5 μM 72 hr, then re-plated in control media 96 hrs): 49%
proliferation reduced by (TOV-112D cells [5]; control media, then AMD3100 5 μM 96 hr): 51%
sensitization of cells by AMD3100 pre-treatment (TOV-112D cells [5]; listed as AMD-3100): significantly sensitized
CXCR4 reduced by (CXCR4 [8]; 4 hours): 13%
CXCR4 reduced by (CXCR4 [8]; 18 hours): 4%
surface expression of CXCR4, significance of change (CXCR4 [8]; [11]): did not significantly alter
CXCR7 expression increased by (CXCR7 [9]; AMD3100 10 μM, 4 or 18 hours, normalized): 6%-11
surface expression of CXCR7, significance of change (CXCR7 [9]; [11]): did not significantly alter
CXCR7 expression (CXCR7 [10]; AMD3100 5 μM, 18 hours, normalized): returned to basal levels
CXCR7 expression increased by (CXCR7 [10]; AMD3100 5 μM, after 4 hours, normalized): 20%
surface expression of CXCR7, significance of change (CXCR7 [10]; [11]): did not significantly alter
CXCL12 expression reduced by (CXCL12; ID8 cells, AMD3100 10 μM): 9-10%
overall expression of CXCL12, significance of change (CXCL12; ID8 cells): did not significantly alter
CXCL12 expression reduced by (CXCL12; TOV-112D cells, AMD3100 5 μM): 5-7%
overall expression of CXCL12, significance of change (CXCL12; TOV-112D cells): did not significantly alter
limited cell growth by ([6]; TOV-112D cells, AMD3100 2.5 μM alone): 24.5%

— US20190133998A1, “TREATMENT OF TUMORS WITH INHIBITORS OF CXCL12 SIGNALING AND SUBT[…] OF CHEMOTHERAPEUTIC AGENTS” (THE GENERAL HOSPITAL CORPORATION, priority 2016, published 2019)
